Measurements: the Kinase Knowledgebase extract (Sharma et al. 2016)

Molecular target: MAPK14 (human) (UniProt Q16539)
Assay: Inhibition of MAPK14 Kinase Activtiy

Sequence of MAPK14 (human) (Q16539 whole entry, looked up): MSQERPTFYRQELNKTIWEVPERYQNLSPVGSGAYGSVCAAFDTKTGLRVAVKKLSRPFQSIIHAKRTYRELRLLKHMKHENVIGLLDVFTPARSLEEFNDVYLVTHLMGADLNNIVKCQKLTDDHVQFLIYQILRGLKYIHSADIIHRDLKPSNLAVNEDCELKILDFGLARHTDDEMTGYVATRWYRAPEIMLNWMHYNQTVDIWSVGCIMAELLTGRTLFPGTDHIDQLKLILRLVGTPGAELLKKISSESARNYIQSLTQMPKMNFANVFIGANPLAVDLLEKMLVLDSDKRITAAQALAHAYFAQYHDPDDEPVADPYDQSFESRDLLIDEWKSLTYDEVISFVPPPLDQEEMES

| SMILES | IC50 [nM] |
| --- | --- |
| CC(C)C[C@H](NC[C@@H](O)COc1cc(-c2ccc(F)cc2Cl)c2ccc(=O)n(-c3c(F)cccc3F)c2c1)C(=O)O | < 100 |
| CC(C)(C)[C@H](NCCCOc1cc(-c2ccc(F)cc2Cl)c2ccc(=O)n(-c3c(Cl)cccc3Cl)c2c1)C(=O)O | < 100 |
| CC(C)C[C@H](NC1CCC(c2cc(-c3ccc(F)cc3Cl)c3c(c2)N(c2c(Cl)cccc2Cl)C(=O)CC3)CC1)C(=O)O (stereo not given in full) | < 100 |
| O=C(O)[C@@H](NCCCOc1cc(-c2ccc(F)cc2Cl)c2ccc(=O)n(-c3c(Cl)cccc3Cl)c2c1)C1CCCCC1 | < 100 |
| CC(C)C[C@H](NCCCOc1cc(-c2ccc(F)cc2Cl)c2ccc(=O)n(-c3c(Cl)cccc3Cl)c2c1)C(=O)O | < 100 |
| CC(C)C[C@H](NCCCOc1cc(-c2ccc(F)cc2F)c2ccc(=O)n(-c3c(F)cccc3F)c2c1)C(=O)O | < 100 |
| CC(C)C[C@H](NCCCCCOc1cc(-c2ccc(F)cc2Cl)c2ccc(=O)n(-c3c(Cl)cccc3Cl)c2c1)C(=O)O | < 100 |
| CC(C)C[C@H](NCCCOc1cc(-c2ccc(F)cc2Cl)c2ccc(=O)n(-c3c(Cl)cccc3Cl)c2c1)C(=O)OC(C)C | < 100 |
| CC(C)(C)OC[C@H](NCCCOc1cc(-c2ccc(F)cc2Cl)c2ccc(=O)n(-c3c(Cl)cccc3Cl)c2c1)C(=O)OC1CCCC1 | < 100 |
| O=C(O)[C@@H](NCCCOc1cc(-c2ccc(F)cc2Cl)c2ccc(=O)n(-c3c(F)cccc3F)c2c1)c1ccccc1 | < 100 |
| O=C(O)[C@@H](NCCCOc1cc(-c2ccc(F)cc2Cl)c2ccc(=O)n(-c3c(F)cccc3F)c2c1)C1CCCCC1 | < 100 |
| CC(C)C[C@H](NCCCOc1cc(-c2ccc(F)cc2Cl)c2ccc(=O)n(-c3c(Cl)cccc3Cl)c2c1)C(=O)OC1CCCC1 | < 100 |
| CC(C)C[C@H](NCCCOc1cc(-c2ccc(F)cc2Cl)c2ccc(=O)n(-c3c(Cl)cccc3Cl)c2c1)C(=O)OC1CCN(C)CC1 | < 100 |
| CC(C)C[C@H](NCCCOc1cc(-c2ccc(F)cc2Cl)c2ccc(=O)n(-c3c(F)cccc3F)c2c1)C(=O)O | < 100 |

Second part, the compound after the results:

| IC50 [nM] | SMILES |
| --- | --- |
| < 100 | CC(C)C[C@H](NCCCOc1cc(-c2ccc(F)cc2Cl)c2ccc(=O)n(-c3ccccc3)c2c1)C(=O)O |
| < 100 | CC(C)(C)OC[C@H](NCCCOc1cc(-c2ccc(F)cc2Cl)c2ccc(=O)n(-c3c(Cl)cccc3Cl)c2c1)C(=O)O |
| < 100 | CC(C)C[C@H](NCCc1cc(-c2ccc(F)cc2Cl)c2ccc(=O)n(-c3c(F)cccc3F)c2c1)C(=O)O |
| < 100 | CC(C)C[C@H](NCCc1cc(-c2ccc(F)cc2Cl)c2ccc(=O)n(-c3c(Cl)cccc3Cl)c2c1)C(=O)O |
| < 100 | O=C(O)[C@@H](NCCCOc1cc(-c2ccc(F)cc2Cl)c2ccc(=O)n(-c3c(Cl)cccc3Cl)c2c1)c1ccccc1 |
| < 100 | CC(C)C[C@H](NC[C@H](O)COc1cc(-c2ccc(F)cc2Cl)c2ccc(=O)n(-c3c(F)cccc3F)c2c1)C(=O)O |
